Measurements as given in patent US20160375006A1, “USES OF PARALOG-SELECTIVE INHIBITORS OF GSK3 KINASES” (priority 2012, published 2016).
Where two headings read alike, the source gives them in different places.

How the values were obtained:
[1] = molecular target: T1, GSK3β (Homo sapiens, UniProt P49841); experiment: biochemical
[2] = molecular target: GSK3α (Homo sapiens, UniProt P49840); experiment: biochemical
Method: Reactions were terminated by the addition of 10 mM EDTA. Substrate and product were separated electrophoretically and fluorescence intensity of the substrate and product was determined by Labchip EZ Reader II (Caliper Life Sciences, MA). The kinase activity was measured as percent conversion. The reactions were performed in duplicate for each sample. […] The results were analyzed by Genedata Assay Analyzer. The percent inhibition was plotted against the compound concentration and the IC50 value was determined from the logistic dose-response curve fitting.

[3] = molecular target: T1, GSK3β; details: GSK3β over GSK3α

T1 sequence (P49841 whole entry): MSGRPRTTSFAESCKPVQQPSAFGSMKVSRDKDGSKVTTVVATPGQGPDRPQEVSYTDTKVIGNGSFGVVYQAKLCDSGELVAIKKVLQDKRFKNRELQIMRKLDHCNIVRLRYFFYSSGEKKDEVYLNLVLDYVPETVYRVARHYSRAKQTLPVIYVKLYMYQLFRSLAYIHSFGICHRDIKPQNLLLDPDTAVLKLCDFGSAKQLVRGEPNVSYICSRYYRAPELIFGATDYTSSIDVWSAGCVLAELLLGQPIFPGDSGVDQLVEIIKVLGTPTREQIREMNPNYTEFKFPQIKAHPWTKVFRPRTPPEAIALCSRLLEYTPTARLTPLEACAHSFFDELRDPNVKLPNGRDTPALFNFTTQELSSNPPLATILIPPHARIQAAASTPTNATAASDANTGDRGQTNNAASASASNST
Chain of GSK3α (P49840 whole entry): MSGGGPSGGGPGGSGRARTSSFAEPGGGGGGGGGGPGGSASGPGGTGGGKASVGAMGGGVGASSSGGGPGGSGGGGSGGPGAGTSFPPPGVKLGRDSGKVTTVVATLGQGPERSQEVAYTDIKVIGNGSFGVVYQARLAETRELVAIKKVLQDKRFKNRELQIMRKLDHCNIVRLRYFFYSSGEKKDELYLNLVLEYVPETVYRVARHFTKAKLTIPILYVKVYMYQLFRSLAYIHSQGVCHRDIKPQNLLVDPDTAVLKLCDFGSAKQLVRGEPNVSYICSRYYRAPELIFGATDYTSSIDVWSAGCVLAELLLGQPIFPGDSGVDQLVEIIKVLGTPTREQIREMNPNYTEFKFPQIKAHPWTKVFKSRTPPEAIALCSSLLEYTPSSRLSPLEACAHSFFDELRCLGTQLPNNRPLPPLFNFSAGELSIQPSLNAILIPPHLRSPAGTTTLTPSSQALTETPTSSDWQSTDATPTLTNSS

Structure (SMILES) | IC50 [1] | IC50 [2] | GSK3β fold selectivity ([3]; Caliper assay) | GSK3β fold selectivity [3]
COc1ccccc1C1C2=C(CC(C)(C)CC2=O)Nc2n[nH]c(CC(C)(C)C)c21 (racemic) [Compound 278] | 19 nM | 253 nM | 13.3 fold | –
CC(C)(C)Cc1[nH]nc2c1C1(CCc3ccccc31)C1=C(CC(C)(C)CC1=O)N2 (racemic) [Compound 281] | 4 nM | 82 nM | 20.5 fold | –
CC(C)(C)Cc1[nH]nc2c1C1(CCc3cc(F)ccc31)C1=C(CC(C)(C)CC1=O)N2 (racemic) [Compound 284] | 63 nM | 485 nM | 7.7 fold | –
CC[C@@]1(c2cccc(C(C)(C)C)c2)C2=C(CC(C)(C)CC2=O)Nc2n[nH]cc21 (stereo in doubt) [Compound 226] | 12 nM | 51 nM | 4.3 fold | –
CC[C@]1(c2ccccc2)C2=C(CC3(COC3)CC2=O)Nc2n[nH]cc21 (stereo in doubt) [Compound 238] | 12300 nM | 26900 nM | 2.2 fold | –
CC(C)(C)Cc1[nH]nc2c1[C@](C)(c1ccccc1)C1=C(CC(C)(C)CC1=O)N2 (stereo in doubt) [Compound 272] | 15 nM | 215 nM | 14.3 fold | –
COc1ccccc1[C@H]1C2=C(CC(C)(C)CC2=O)Nc2n[nH]c(CC(C)(C)C)c21 (stereo in doubt) [Compound 279] | 14 nM | 135 nM | 9.6 fold | –
COc1ccccc1[C@@H]1C2=C(CC(C)(C)CC2=O)Nc2n[nH]c(CC(C)(C)C)c21 (stereo in doubt) [Compound 280] | 1910 nM | 10600 nM | 5.6 fold | –
CC(C)(C)Cc1[nH]nc2c1[C@@]1(CCc3ccccc31)C1=C(CC(C)(C)CC1=O)N2 (stereo in doubt) [Compound 282] | 1.7 nM | 28 nM | 16.5 fold | –
CC(C)(C)Cc1[nH]nc2c1[C@]1(CCc3ccccc31)C1=C(CC(C)(C)CC1=O)N2 (stereo in doubt) [Compound 283] | 212 nM | 1910 nM | 9.0 fold | –
CC(C)(C)Cc1[nH]nc2c1[C@@]1(CCc3cc(F)ccc31)C1=C(CC(C)(C)CC1=O)N2 (stereo in doubt) [Compound 285] | 11 nM | 249 nM | 22.6 fold | –
CC(C)(C)Cc1[nH]nc2c1[C@]1(CCc3cc(F)ccc31)C1=C(CC(C)(C)CC1=O)N2 (stereo in doubt) [Compound 286] | 790 nM | 4760 nM | 6.0 fold | –
CC(C)(C)Cc1[nH]nc2c1[C@@]1(CCOc3ccccc31)C1=C(CC(C)(C)CC1=O)N2 (stereo in doubt) [Compound 288] | 18 nM | 139 nM | 7.7 fold | –
CC(C)(C)Cc1[nH]nc2c1[C@]1(CCOc3ccccc31)C1=C(CC(C)(C)CC1=O)N2 (stereo in doubt) [Compound 289] | 530 nM | 2980 nM | 5.6 fold | –

Other lines, results leading:

IC50 [1] | IC50 [2] | GSK3β fold selectivity ([3]; Caliper assay) | GSK3β fold selectivity [3] | Structure (SMILES)
215 nM | 1430 nM | 6.7 fold | – | CC(C)(C)Cc1[nH]nc2c1C(C)(c1ccc(F)cc1)C1=C(CC(C)(C)CC1=O)N2 (racemic) [Compound 275]
44 nM | 379 nM | 8.6 fold | – | CCC(C)(C)Cc1[nH]nc2c1C(C)(c1ccccc1)C1=C(CC(C)(C)CC1=O)N2 (racemic) [Compound 290]
439 nM | 1520 nM | 3.5 fold | – | CC1(C)CC(=O)C2=C(C1)Nc1n[nH]c(C3CCCC3)c1C2(C)c1ccccc1 (racemic) [Compound 300]
746 nM | 1850 nM | 2.5 fold | – | CC1(C)CC(=O)C2=C(C1)Nc1n[nH]c(C3CCCCC3)c1C2(C)c1ccccc1 (racemic) [Compound 303]
10 nM | 78 nM | 7.8 fold | 6.4 fold | CC1(C)CC(=O)C2=C(C1)Nc1n[nH]c(C3CC(F)(F)C3)c1[C@]2(C)c1ccccc1 (stereo in doubt) [Compound 127]
468 nM | 8220 nM | 17.6 fold | 17.6 fold | CC1(C)CC(=O)C2=C(C1)Nc1n[nH]c(C3CC(F)(F)C3)c1[C@@]2(C)c1ccccc1 (stereo in doubt) [Compound 128]
16 nM | 81 nM | 5.1 fold | – | CC(C)c1[nH]nc2c1[C@@]1(CCc3ccccc31)C1=C(CC(C)(C)CC1=O)N2 (stereo in doubt) [Compound 242]
27 nM | 178 nM | 6.6 fold | – | CC(C)c1[nH]nc2c1[C@]1(CCc3ccccc31)C1=C(CC(C)(C)CC1=O)N2 (stereo in doubt) [Compound 243]
30 nM | 86 nM | 2.9 fold | – | CC1(C)CC(=O)C2=C(C1)Nc1n[nH]c(C3CC(F)(F)C3)c1[C@]2(C)c1cccc(C(F)(F)F)c1 (stereo in doubt) [Compound 248]
1550 nM | 4790 nM | 3.1 fold | – | CC1(C)CC(=O)C2=C(C1)Nc1n[nH]c(C3CC(F)(F)C3)c1[C@@]2(C)c1cccc(C(F)(F)F)c1 (stereo in doubt) [Compound 249]
84 nM | 1250 nM | 14.9 fold | – | COc1ccccc1[C@H]1C2=C(CC(C)(C)CC2=O)Nc2n[nH]c(C3CC(F)(F)C3)c21 (stereo in doubt) [Compound 251]
23 nM | 191 nM | 8.3 fold | – | COc1ccccc1[C@@H]1C2=C(CC(C)(C)CC2=O)Nc2n[nH]c(C3CC(F)(F)C3)c21 (stereo in doubt) [Compound 252]
2520 nM | 9330 nM | 3.7 fold | – | COc1ccccc1[C@]1(C)C2=C(CC(C)(C)CC2=O)Nc2n[nH]c(C3CC(F)(F)C3)c21 (stereo in doubt) [Compound 254]
13400 nM | 28000 nM | 2.1 fold | – | COc1ccccc1[C@@]1(C)C2=C(CC(C)(C)CC2=O)Nc2n[nH]c(C3CC(F)(F)C3)c21 (stereo in doubt) [Compound 255]
1050 nM | 6700 nM | 6.4 fold | – | CC(C)(C)Cc1[nH]nc2c1[C@@](C)(c1ccccc1)C1=C(CC(C)(C)CC1=O)N2 (stereo in doubt) [Compound 273]
104 nM | 1060 nM | 10.2 fold | – | CC(C)(C)Cc1[nH]nc2c1[C@](C)(c1ccc(F)cc1)C1=C(CC(C)(C)CC1=O)N2 (stereo in doubt) [Compound 276]
949 nM | 2800 nM | 3.0 fold | – | CC(C)(C)Cc1[nH]nc2c1[C@@](C)(c1ccc(F)cc1)C1=C(CC(C)(C)CC1=O)N2 (stereo in doubt) [Compound 277]
52 nM | 332 nM | 6.4 fold | – | CCC(C)(C)Cc1[nH]nc2c1[C@](C)(c1ccccc1)C1=C(CC(C)(C)CC1=O)N2 (stereo in doubt) [Compound 291]
